Our source for the IC50 values is patent publication US12421254B2, “KRAS modulators and uses thereof” (Quanta Therapeutics, Inc., priority 2023, dated 2025).

Assay [1] has as its target GST-tagged KRAS-G12D (2-169) (Homo sapiens, UniProt P01116, G12D). Put plainly: Nucleotide exchange assay (NEA), SOS-mediated, HTRF, KRAS G12D. Format: biochemical. The settings on record: Table 4; IC50 extracted at 30 min; 20 nM SOScat; read-out: NEA G12D IC50. The gist of the method: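 SOS1cat-driven loading of fluorescent GTP-DY-647P1 (150 nM) onto GST-KRAS-G12D (2-169, 0.25 nM) read by time-resolved FRET; SOScat 20 nM, compound preincubated with KRAS 1 h at RT. Signal blanked to no-SOS reactions, normalized to DMSO; IC50 fitted from the 30-min read.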
Background: In TR-FRET formats the signal depends on donor and acceptor labels being close together.

The target in assay [2] is GST-tagged KRAS-G12V (2-169) (Homo sapiens, UniProt P01116, G12V). Description: Nucleotide exchange assay (NEA), SOS-mediated, HTRF, KRAS G12V. The settings on record: Table 4; IC50 extracted at 90 min; 80 nM SOS. Format: biochemical. The gist of the method:
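Exchange onto fluorescent GTP-DY-647P1 (150 nM final) catalysed by 80 nM SOS1cat was followed by Tb-anti-GST HTRF at RT for up to 90 min, after 1 h compound pre-incubation with 0.25 nM GST-tagged KRAS-G12V (2-169), pH 7.3. DMSO = 0%, no-SOS blank = 100%; 4-parameter IC50 taken at 90 min.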

GST-tagged KRAS-G12D (2-169), sequence (P01116 2-169 isoform P01116-2 G12D): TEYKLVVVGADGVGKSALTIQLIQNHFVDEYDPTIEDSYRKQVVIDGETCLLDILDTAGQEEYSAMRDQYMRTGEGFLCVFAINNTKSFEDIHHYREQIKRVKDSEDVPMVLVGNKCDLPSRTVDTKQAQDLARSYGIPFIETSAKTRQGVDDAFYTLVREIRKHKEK
GST-tagged KRAS-G12V (2-169), sequence (P01116 2-169 isoform P01116-2 G12V): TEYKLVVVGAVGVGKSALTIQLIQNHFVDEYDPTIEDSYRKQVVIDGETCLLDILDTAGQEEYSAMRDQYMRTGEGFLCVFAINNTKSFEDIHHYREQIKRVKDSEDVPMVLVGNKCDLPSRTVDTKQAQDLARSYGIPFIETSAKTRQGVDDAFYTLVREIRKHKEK

What is called IC50 is the midpoint of a concentration-inhibition curve. As for `N#Cc1c(N)sc2c1C1(CC2)CN(c2nc(OC[C@@]34CCCN3C[C@H](F)C4)nc(N(CCO)Cc3cc[nH]n3)n2)C1` [Compound 131, 2-amino-1′-[4-[[(2R,8S)-2-fluoro-1,2,3,5,6,7-hexahydropyrrolizin-8-yl]methoxy]-6-[2-hydroxyethyl(1H-pyrazol-5-ylmethyl)amino]-1,3,5-triazin-2-yl]spiro[5,6-dihydrocyclopenta[b]thiophene-4,3′-azetidine]-3-carbonitrile], the IC50 in assay [1] was in the range of 100 to 1000 nM; in assay [2], 10 to 100 nM.

In the case of `C[C@@]1(CO)C[C@H](O)CN1c1nc(OC[C@@]23CCCN2C[C@H](F)C3)nc(N2CC3(CCc4sc(N)c(C#N)c43)C2)n1` [Compound 66, 2-amino-1′-[4-[[(2R,8S)-2-fluoro-1,2,3,5,6,7-hexahydropyrrolizin-8-yl]methoxy]-6-[(2S,4S)-4-hydroxy-2-(hydroxymethyl)-2-methyl-pyrrolidin-1-yl]-1,3,5-triazin-2-yl]spiro[5,6-dihydrocyclopenta[b]thiophene-4,3′-azetidine]-3-carbonitrile], the 50% inhibitory concentration (IC50) in assay [1] fell in the range of 100 to 1000 nM; in assay [2] it was 10 to 100 nM.

`CC(c1nccnc1N)N(C)c1nc(OC[C@@]23CCCN2C[C@H](F)C3)nc(N2CC3(CCc4sc(N)c(C#N)c43)C2)n1` (single isomer, unassigned) [Compound 116B, 2-amino-1′-[4-[[(1*)-1-(3-aminopyrazin-2-yl)ethyl]-methyl-amino]-6-[[(2R,8S)-2-fluoro-1,2,3,5,6,7-hexahydropyrrolizin-8-yl]methoxy]-1,3,5-triazin-2-yl]spiro[5,6-dihydrocyclopenta[b]thiophene-4,3′-azetidine]-3-carbonitrile]: the IC50 in assay [1] was 100 to 1000 nM; in assay [2] it was 10 to 100 nM.

With `N#Cc1c(N)sc2c1C1(CN(c3nc(OCC4(CN5CCOCC5)CC4)nc(N4CCNC[C@@H]4C(F)F)n3)C1)SC2` [Compound 193, (R)-2′-amino-1-(4-(2-(difluoromethyl)piperazin-1-yl)-6-((1-(morpholinomethyl)cyclopropyl)methoxy)-1,3,5-triazin-2-yl)-6′H-spiro[azetidine-3,4′-thieno[3,4-b]thiophene]-3′-carbonitrile], the values for the IC50 in assay [1] and in assay [2] were less than 10 nM and 10 to 100 nM, respectively.

Take `N#Cc1c(N)sc2c1C1(CN(c3nc(OC[C@@]45CCCN4C[C@H](F)C5)nc(N(CCN)C4(C#N)CC4)n3)C1)SC2` [Compound 272, 2-amino-1′-[4-[2-aminoethyl-(1-cyanocyclopropyl)amino]-6-[[(2R,8S)-2-fluoro-1,2,3,5,6,7-hexahydropyrrolizin-8-yl]methoxy]-1,3,5-triazin-2-yl]spiro[6H-thieno[3,4-b]thiophene-4,3′-azetidine]-3-carbonitrile; formic acid]: the results for the IC50 in assay [1] and in assay [2] were less than 10 nM and 10 to 100 nM, respectively.

As for `CC(c1ccc(P(C)(C)=O)cc1N)N(C)c1nc(OC[C@@]23CCCN2C[C@H](F)C3)nc(N2CC3(C2)SCc2sc(N)c(C#N)c23)n1` (stereo partly drawn) [Compound 231, 2′-amino-1-(4-((1-(2-amino-4-(dimethylphosphoryl)phenyl)ethyl)(methyl)amino)-6-(((2R,7aS)-2-fluorotetrahydro-1H-pyrrolizin-7a(5H)-yl)methoxy)-1,3,5-triazin-2-yl)-6′H-spiro[azetidine-3,4′-thieno[3,4-b]thiophene]-3′-carbonitrile], the 50% inhibitory concentration (IC50) in assay [1] and in assay [2] was not below 20000 nM each time.

Consider `N#Cc1c(N)sc2c1C1(CC2)CN(c2nc(OC[C@@]34CCCN3C[C@H](F)C4)nc(N3CCCC(C#N)C(O)C3)n2)C1` (mixture of isomers) [Compound 96, 2-amino-1′-[4-(4-cyano-3-hydroxy-azepan-1-yl)-6-[[rac-(2R,8S)-2-fluoro-1,2,3,5,6,7-hexahydropyrrolizin-8-yl]methoxy]-1,3,5-triazin-2-yl]spiro[5,6-dihydrocyclopenta[b]thiophene-4,3′-azetidine]-3-carbonitrile], for which the results for the concentration for half-maximal inhibition (IC50) in assay [1] and in assay [2] were 100 to 1000 nM and 10 to 100 nM, respectively.

With `CC(c1ccn(C)n1)N(C)c1nc(OC[C@@]23CCCN2C[C@H](F)C3)nc(N2CC3(CCc4sc(N)c(C#N)c43)C2)n1` (stereo partly drawn) [Compound 119, 2-amino-1′-[4-[[(2R,8S)-2-fluoro-1,2,3,5,6,7-hexahydropyrrolizin-8-yl]methoxy]-6-[methyl-[1-(1-methylpyrazol-3-yl)ethyl]amino]-1,3,5-triazin-2-yl]spiro[5,6-dihydrocyclopenta[b]thiophene-4,3′-azetidine]-3-carbonitrile], the half-inhibitory concentration (IC50) in assay [1] and in assay [2] was 1000 to 20000 nM throughout.

As to `CCN(c1nc(OC[C@@]23CCCN2C[C@H](F)C3)nc(N2CC3(C2)c2c(sc(N)c2C#N)CN3CC(F)F)n1)[C@H](C)c1cccnc1N` [Compound 227, 2-amino-1′-[4-[[(1R)-1-(2-amino-3-pyridyl)ethyl]-ethyl-amino]-6-[[(2R,8S)-2-fluoro-1,2,3,5,6,7-hexahydropyrrolizin-8-yl]methoxy]-1,3,5-triazin-2-yl]-5-(2,2-difluoroethyl)spiro[6H-thieno[2,3-c]pyrrole-4,3′-azetidine]-3-carbonitrile], the values for the IC50 in assay [1] and in assay [2] were 100 to 1000 nM and 10 to 100 nM, respectively.

On to `CC(O)CN(c1nc(OC[C@@]23CCCN2C[C@H](F)C3)nc(N2CC3(C2)SCc2sc(N)c(C#N)c23)n1)C1(C#N)CC1` (stereo partly drawn) [Compound 261, 2-amino-1′-[4-[(1-cyanocyclopropyl)-(2-hydroxypropyl)amino]-6-[[(2R,8S)-2-fluoro-1,2,3,5,6,7-hexahydropyrrolizin-8-yl]methoxy]-1,3,5-triazin-2-yl]spiro[6H-thieno[3,4-b]thiophene-4,3′-azetidine]-3-carbonitrile], for which the 50% inhibitory concentration (IC50) in assay [1] and in assay [2] was less than 10 nM throughout.

For `C[C@H](c1cccnc1N)N(CC(F)F)c1nc(OCC2(CN(C)C)CC2(F)F)nc(N2CC3(C2)SCc2sc(N)c(C#N)c23)n1` (stereo partly drawn) [Compound 220, 2-amino-1′-[4-[[(1R)-1-(2-amino-3-pyridyl)ethyl]-(2,2-difluoroethyl)amino]-6-[[1-[(dimethylamino)methyl]-2,2-difluoro-cyclopropyl]methoxy]-1,3,5-triazin-2-yl]spiro[6H-thieno[3,4-b]thiophene-4,3′-azetidine]-3-carbonitrile], the 50% inhibitory concentration (IC50) in assay [1] and in assay [2] was less than 10 nM in each case.

Regarding `N#Cc1c(N)sc2c1C1(CN(c3nc(OCC45CCCN4CC(F)C5)nc(N4C5CCC4C(O)C5)n3)C1)SC2` (mixture of isomers) [Compound 282, 2-amino-1′-[4-[[(2R,8S)-2-fluoro-1,2,3,5,6,7-hexahydropyrrolizin-8-yl]methoxy]-6-[(1RS,2SR,4SR)-2-hydroxy-7-azabicyclo[2.2.1]heptan-7-yl]-1,3,5-triazin-2-yl]spiro[6H-thieno[3,4-b]thiophene-4,3′-azetidine]-3-carbonitrile], the IC50 lay within 100 to 1000 nM in assay [1] and 10 to 100 nM in assay [2].

Turning to `CCN(c1nc(OCC2(CO)CCCN2)nc(N2CC3(C2)SCc2sc(N)c(C#N)c23)n1)[C@H](C)c1cccnc1N` (stereo partly drawn) [Compound 208, 2-amino-1′-[4-[[(1R)-1-(2-amino-3-pyridyl)ethyl]-ethyl-amino]-6-[[2-(hydroxymethyl)pyrrolidin-2-yl]methoxy]-1,3,5-triazin-2-yl]spiro[6H-thieno[3,4-b]thiophene-4,3′-azetidine]-3-carbonitrile], the concentration for half-maximal inhibition (IC50) in assay [1] and in assay [2] was less than 10 nM in each case.

Turning to `C[C@H](c1cccnc1N)N(C)c1nc(OC[C@@]23CCCN2C[C@H](F)C3)nc(N2CCC3(CCCc4sc(N)c(C#N)c43)C2=O)n1` (single isomer, unassigned) [Compound 175B, (*)-2-amino-1′-(4-(((R)-1-(2-aminopyridin-3-yl)ethyl)(methyl)amino)-6-(((2R,7aS)-2-fluorotetrahydro-1H-pyrrolizin-7a(5H)-yl)methoxy)-1,3,5-triazin-2-yl)-2′-oxo-6,7-dihydro-5H-spiro[benzo[b]thiophene-4,3′-pyrrolidine]-3-carbonitrile], the half-inhibitory concentration (IC50) was 100 to 1000 nM in assay [1] and less than 10 nM in assay [2].

On to `CN(C)CC1(COc2nc(N3CCOCC(C)(O)C3)nc(N3CC4(C3)SCc3sc(N)c(C#N)c34)n2)CC1(F)F` (centres unmarked) [Compound 281, 2-amino-1′-[4-[[1-[(dimethylamino)methyl]-2,2-difluoro-cyclopropyl]methoxy]-6-(6-hydroxy-6-methyl-1,4-oxazepan-4-yl)-1,3,5-triazin-2-yl]spiro[6H-thieno[3,4-b]thiophene-4,3′-azetidine]-3-carbonitrile], for which the IC50 in assay [1] and in assay [2] was less than 10 nM each time.

As for `CC(c1nccnc1O)N(C)c1nc(OC[C@@]23CCCN2C[C@H](F)C3)nc(N2CC3(CCc4sc(N)c(C#N)c43)C2)n1` (stereo partly drawn) [Compound 150, 2-amino-1′-[4-[[(2R,8S)-2-fluoro-1,2,3,5,6,7-hexahydropyrrolizin-8-yl]methoxy]-6-[1-(3-hydroxypyrazin-2-yl)ethyl-methyl-amino]-1,3,5-triazin-2-yl]spiro[5,6-dihydrocyclopenta[b]thiophene-4,3′-azetidine]-3-carbonitrile], the IC50 in assay [1] was in the range of 1000 to 20000 nM; in assay [2], 100 to 1000 nM.
